Values of other authors in PubChem BioAssay AID1259409 (Chemical Carcinogenesis Research Information System (CCRIS), 2018).

Tested on: rodent chemically induced tumor inhibition, incidence and multiplicity
Test: CCRIS tumor inhibitor studies

NC(=O)c1cccnc1
tumour outcome (control, treated, inhibition, significance) (Carcinogen: N-NITROSOBIS(2-OXOPROPYL)AMINE, 60599-38-4, Dose [Inhibitor]: 0, 0.2% IN DRINKING WATER FOR 49 WK POST CARCINOGEN TREATMENT (STUDY DURATION: 52 WK), Route [Inhibitor]: ORAL, Species: HAMSTER, Strain/Sex: SYRIAN GOLDEN/FEMALE, Target Tissue: Type of Lesion: TRACHEA: PAPILLOMA, Dose [Carcinogen]: 10 MG/KG BW 1/WK FOR FIRST 3 WK OF STUDY DURATION, Promoter: NONE): 1/30 (3%), 0/29 (0%), 100%, not significant
tumour outcome (control, treated, inhibition, significance) (Carcinogen: N-NITROSOBIS(2-OXOPROPYL)AMINE, 60599-38-4, Dose [Inhibitor]: 0, 0.5% IN DRINKING WATER FOR 49 WK BEGINNING POST CARCINOGEN TREATMENT (STUDY DURATION: 52 WK), Route [Inhibitor]: ORAL, Species: HAMSTER, Strain/Sex: SYRIAN/FEMALE, Target Tissue: Type of Lesion: PANCREAS: ADENOCARCINOMA, Dose [Carcinogen]: 10 MG/KG 1/WK FOR 3 WK, Promoter: NONE): 18/30 (60%), 21/30 (70%), -17%, not significant
tumour outcome (control, treated, inhibition, significance) (Carcinogen: N-NITROSOBIS(2-OXOPROPYL)AMINE, 60599-38-4, Dose [Inhibitor]: 0, 0.5% IN DRINKING WATER FOR 49 WK POST CARCINOGEN TREATMENT (STUDY DURATION: 52 WK), Route [Inhibitor]: ORAL, Species: HAMSTER, Strain/Sex: SYRIAN GOLDEN/FEMALE, Target Tissue: Type of Lesion: KIDNEY: NEPHROBLASTOMA, Dose [Carcinogen]: 10 MG/KG BW 1/WK FOR FIRST 3 WK OF STUDY DURATION, Promoter: NONE): 2/30 (7%), 0/30 (0%), 100%, not significant
outcome (Carcinogen: N-NITROSOBIS(2-OXOPROPYL)AMINE, 60599-38-4, Dose [Inhibitor]: 0, 0.5% IN DRINKING WATER FOR 49 WK POST CARCINOGEN TREATMENT (STUDY DURATION: 52 WK), Route [Inhibitor]: ORAL, Species: HAMSTER, Strain/Sex: SYRIAN GOLDEN/FEMALE, Target Tissue: Type of Lesion: KIDNEY: RENAL CELL ADENOMA, Dose [Carcinogen]: 10 MG/KG BW 1/WK FOR FIRST 3 WK OF STUDY DURATION, Promoter: NONE): 0/30 (0%), 2/30 (7%), -100%, not significant
tumour outcome (control, treated, inhibition, significance) (Carcinogen: N-NITROSOBIS(2-OXOPROPYL)AMINE, 60599-38-4, Dose [Inhibitor]: 0, 0.5% IN DRINKING WATER FOR 49 WK POST CARCINOGEN TREATMENT (STUDY DURATION: 52 WK), Route [Inhibitor]: ORAL, Species: HAMSTER, Strain/Sex: SYRIAN GOLDEN/FEMALE, Target Tissue: Type of Lesion: KIDNEY: RENAL CELL CARCINOMA, Dose [Carcinogen]: 10 MG/KG BW 1/WK FOR FIRST 3 WK OF STUDY DURATION, Promoter: NONE): 1/30 (3%), 2/30 (7%), -133%, not significant
tumour outcome (control, treated, inhibition, significance) (Carcinogen: N-NITROSOBIS(2-OXOPROPYL)AMINE, 60599-38-4, Dose [Inhibitor]: 0, 0.5% IN DRINKING WATER FOR 49 WK POST CARCINOGEN TREATMENT (STUDY DURATION: 52 WK), Route [Inhibitor]: ORAL, Species: HAMSTER, Strain/Sex: SYRIAN GOLDEN/FEMALE, Target Tissue: Type of Lesion: LIVER: CHOLANGIOCELLULAR ADENOMA, Dose [Carcinogen]: 10 MG/KG BW 1/WK FOR FIRST 3 WK OF STUDY DURATION, Promoter: NONE): 1/30 (3%), 3/30 (10%), -233%, not significant
outcome (Carcinogen: N-NITROSOBIS(2-OXOPROPYL)AMINE, 60599-38-4, Dose [Inhibitor]: 0, 0.5% IN DRINKING WATER FOR 49 WK POST CARCINOGEN TREATMENT (STUDY DURATION: 52 WK), Route [Inhibitor]: ORAL, Species: HAMSTER, Strain/Sex: SYRIAN GOLDEN/FEMALE, Target Tissue: Type of Lesion: LIVER: CHOLANGIOCELLULAR CARCINOMA, Dose [Carcinogen]: 10 MG/KG BW 1/WK FOR FIRST 3 WK OF STUDY DURATION, Promoter: NONE): 0/30 (0%), 3/30 (10%), -%, not significant
outcome (Carcinogen: N-NITROSOBIS(2-OXOPROPYL)AMINE, 60599-38-4, Dose [Inhibitor]: 0, 0.5% IN DRINKING WATER FOR 49 WK POST CARCINOGEN TREATMENT (STUDY DURATION: 52 WK), Route [Inhibitor]: ORAL, Species: HAMSTER, Strain/Sex: SYRIAN GOLDEN/FEMALE, Target Tissue: Type of Lesion: LIVER: CYSTADENOMA, Dose [Carcinogen]: 10 MG/KG BW 1/WK FOR FIRST 3 WK OF STUDY DURATION, Promoter: NONE): 0/30 (0%), 2/30 (7%), -%, not significant
tumour outcome (control, treated, inhibition, significance) (Carcinogen: N-NITROSOBIS(2-OXOPROPYL)AMINE, 60599-38-4, Dose [Inhibitor]: 0, 0.5% IN DRINKING WATER FOR 49 WK POST CARCINOGEN TREATMENT (STUDY DURATION: 52 WK), Route [Inhibitor]: ORAL, Species: HAMSTER, Strain/Sex: SYRIAN GOLDEN/FEMALE, Target Tissue: Type of Lesion: LIVER: HEPATOCELLULAR ADENOMA, Dose [Carcinogen]: 10 MG/KG BW 1/WK FOR FIRST 3 WK OF STUDY DURATION, Promoter: NONE): 2/30 (7%), 4/30 (13%), -86%, not significant
tumour outcome (control, treated, inhibition, significance) (Carcinogen: N-NITROSOBIS(2-OXOPROPYL)AMINE, 60599-38-4, Dose [Inhibitor]: 0, 0.5% IN DRINKING WATER FOR 49 WK POST CARCINOGEN TREATMENT (STUDY DURATION: 52 WK), Route [Inhibitor]: ORAL, Species: HAMSTER, Strain/Sex: SYRIAN GOLDEN/FEMALE, Target Tissue: Type of Lesion: LIVER: HEPATOCELLULAR CARCINOMA, Dose [Carcinogen]: 10 MG/KG BW 1/WK FOR FIRST 3 WK OF STUDY DURATION, Promoter: NONE): 2/30 (7%), 2/30 (7%), 0%, not significant
tumour outcome (control, treated, inhibition, significance) (Carcinogen: N-NITROSOBIS(2-OXOPROPYL)AMINE, 60599-38-4, Dose [Inhibitor]: 0, 0.5% IN DRINKING WATER FOR 49 WK POST CARCINOGEN TREATMENT (STUDY DURATION: 52 WK), Route [Inhibitor]: ORAL, Species: HAMSTER, Strain/Sex: SYRIAN GOLDEN/FEMALE, Target Tissue: Type of Lesion: LUNG: ADENOCARCINOMA, Dose [Carcinogen]: 10 MG/KG BW 1/WK FOR FIRST 3 WK OF STUDY DURATION, Promoter: NONE): 11/30 (37%), 9/30 (30%), 19%, not significant
tumour outcome (control, treated, inhibition, significance) (Carcinogen: N-NITROSOBIS(2-OXOPROPYL)AMINE, 60599-38-4, Dose [Inhibitor]: 0, 0.5% IN DRINKING WATER FOR 49 WK POST CARCINOGEN TREATMENT (STUDY DURATION: 52 WK), Route [Inhibitor]: ORAL, Species: HAMSTER, Strain/Sex: SYRIAN GOLDEN/FEMALE, Target Tissue: Type of Lesion: LUNG: ADENOMA, Dose [Carcinogen]: 10 MG/KG BW 1/WK FOR FIRST 3 WK OF STUDY DURATION, Promoter: NONE): 15/30 (50%), 17/30 (56.7%), -13%, not significant
tumour outcome (control, treated, inhibition, significance) (Carcinogen: N-NITROSOBIS(2-OXOPROPYL)AMINE, 60599-38-4, Dose [Inhibitor]: 0, 0.5% IN DRINKING WATER FOR 49 WK POST CARCINOGEN TREATMENT (STUDY DURATION: 52 WK), Route [Inhibitor]: ORAL, Species: HAMSTER, Strain/Sex: SYRIAN GOLDEN/FEMALE, Target Tissue: Type of Lesion: LUNG: SQUAMOUS CELL CARCINOMA, Dose [Carcinogen]: 10 MG/KG BW 1/WK FOR FIRST 3 WK OF STUDY DURATION, Promoter: NONE): 2/30 (7%), 2/30 (7%), 0%, not significant
tumour outcome (control, treated, inhibition, significance) (Carcinogen: N-NITROSOBIS(2-OXOPROPYL)AMINE, 60599-38-4, Dose [Inhibitor]: 0, 0.5% IN DRINKING WATER FOR 49 WK POST CARCINOGEN TREATMENT (STUDY DURATION: 52 WK), Route [Inhibitor]: ORAL, Species: HAMSTER, Strain/Sex: SYRIAN GOLDEN/FEMALE, Target Tissue: Type of Lesion: PANCREAS (DUCTAL): ADENOCARCINOMA, Dose [Carcinogen]: 10 MG/KG BW 1/WK FOR FIRST 3 WK OF STUDY DURATION, Promoter: NONE): 18/30 (60%), 21/30 (70%), -17%, not significant
tumour outcome (control, treated, inhibition, significance) (Carcinogen: N-NITROSOBIS(2-OXOPROPYL)AMINE, 60599-38-4, Dose [Inhibitor]: 0, 0.5% IN DRINKING WATER FOR 49 WK POST CARCINOGEN TREATMENT (STUDY DURATION: 52 WK), Route [Inhibitor]: ORAL, Species: HAMSTER, Strain/Sex: SYRIAN GOLDEN/FEMALE, Target Tissue: Type of Lesion: THYROID: ADENOMA, Dose [Carcinogen]: 10 MG/KG BW 1/WK FOR FIRST 3 WK OF STUDY DURATION, Promoter: NONE): 1/30 (3%), 0/30 (0%), 100%, not significant
tumour outcome (control, treated, inhibition, significance) (Carcinogen: N-NITROSOBIS(2-OXOPROPYL)AMINE, 60599-38-4, Dose [Inhibitor]: 0, 350 MG/KG 10 MIN PRIOR TO AND 3 HR POST CARCINOGEN DOSE (STUDY DURATION: 52 WK), Route [Inhibitor]: INTRAPERITONEAL, Species: HAMSTER, Strain/Sex: SYRIAN/MALE, FEMALE, Target Tissue: Type of Lesion: PANCREAS: DUCTAL/DUCTULAR CARCINOMA, Dose [Carcinogen]: 10 MG/KG ONCE, Promoter: NONE USED): 5/60 (8%), 0/35 (0%), 100%, p<0.0001
tumour outcome (control, treated, inhibition, significance) (Carcinogen: N-NITROSOBIS(2-OXOPROPYL)AMINE, 60599-38-4, Dose [Inhibitor]: 0, 350 MG/KG 10 MIN PRIOR TO AND 3 HR POST CARCINOGEN DOSE (STUDY DURATION: 52 WK), Route [Inhibitor]: INTRAPERITONEAL, Species: HAMSTER, Strain/Sex: SYRIAN/MALE, FEMALE, Target Tissue: Type of Lesion: PANCREAS: DUCTULAR ADENOMA, Dose [Carcinogen]: 10 MG/KG ONCE, Promoter: NONE USED): 25/60 (42%), 5/35 (14%), 67%, p=0.05
tumour outcome (control, treated, inhibition, significance) (Carcinogen: URETHANE, 51-79-6, Dose [Inhibitor]: 1.0% (1.02 MG/G BW/D) IN POWDERED DIET FOR 10 D POST CARCINOGEN DOSE (STUDY DURATION: 5 MO), Route [Inhibitor]: ORAL, Species: MOUSE, Strain/Sex: ICR/FEMALE, Target Tissue: Type of Lesion: LUNG: TUMOR, Dose [Carcinogen]: 1 MG/G ONCE, Promoter: NONE USED): 27/31 (87%), 47/51 (92%), -6%, not calculated
tumour outcome (control, treated, inhibition, significance) (Carcinogen: URETHANE, 51-79-6, Dose [Inhibitor]: 2.5% (2.83 MG/G BW/D) IN POWDERED DIET FOR 10 D POST CARCINOGEN DOSE (STUDY DURATION: 5 MO), Route [Inhibitor]: ORAL, Species: MOUSE, Strain/Sex: ICR/FEMALE, Target Tissue: Type of Lesion: LUNG: TUMOR, Dose [Carcinogen]: 1 MG/G ONCE, Promoter: NONE USED): 27/31 (87%), 47/54 (87%), 0%, not calculated
